Patent publication US12508431B2, “Method and apparatus for electrical current therapy of biological tissue and insulin release therefrom” (ROCKY MOUNTAIN BIPHASIC, INC., priority 2019, dated 2025)

Experiments:
INS-1 cells [1] = test: Transmembrane potential assay by DiBAC4(3) staining; type: cell-based, rat; settings: 30 min in staining buffer with 5 μM DiBAC4(3), valinomycin 100 nM, gramicidin 100 nM, KCl 140 mM, FIG. 8A
Description: The transmembrane potential (TMP) was estimated using DiBAC4(3) staining as previously described. For these studies, INS-1 cells were grown to 95% confluency in 6-well plates. The medium was aspirated, replaced with 3 mL fresh complete medium per well, and subjected to mock stimulation or ACBPS (10 Hz, (2.5 ms)/(2.5 ms) pulse duration, 25 V magnitude) for 30 min. Immediately following the stimulation period, the medium was aspirated from each well and replaced with 2 mL per well staining buffer (20 mM HEPES, 120 mM NaCl, 2 mM KCl, 2 mM CaCl2), 1 mM MgCl2, and 5 mM glucose [pH 7.4]) containing 5 μM DiBAC4(3) with DMSO (mock and ACBPS), valinomycin (100 nM), gramicidin (100 nM) or KCl (140 mM). The cells were allowed to incubate in staining buffer at 37° C. for 30 min. Thereafter, the fluorescence intensity of DiBAC4(3) stained INS-1 cells (Ex 490 nm/Em 516 nm) was measured using a BioTek Synergy H1 plate reader programmed to acquire 49 (7×7) individual measurements per well.

INS-1 cells [2] = type: cell-based, rat; settings: FIG. 5A/5B; for ACBPS-induced insulin release: ACBPS 10 Hz, 25 V; for basal insulin release: mock stimulation
Description: A rat insulinoma cell line INS-1 was obtained and were grown in 6-well polystyrene culture plates as attached monolayers in RPMI1640 culture medium supplemented with 10% fetal bovine serum, 10 mM HEPES, 1 mM sodium pyruvate, 2 mM L-glutamine, 0.05 mM 2-mercaptoethanol, 100 IU/mL penicillin and 100 μg/mL streptomycin (i.e., complete medium). Cells were maintained and experiments were conducted in a humidified atmosphere of 5% CO2 in air at 37° C. Select studies were carried out in glucose-free RPMI1640 culture medium supplemented with reagents as described above. In these experiments, the regular medium was exchanged for glucose-free medium 16 hours prior to the electrical stimulation experiment.
ACBPS was applied to cells using a C-Pace EP cell culture stimulator in combination with a C-dish electrode array for a 6-well plate. Control cells were mock stimulated using an identical 6-well C-dish electrode array that was not connected to the stimulator. Unless otherwise stated, the biphasic stimulation parameters were anodal followed by cathodal at 10 Hz (frequency), 5 milliseconds (ms) (total pulse duration), and 25 V (pulse magnitude).
Insulin release from INS-1 cells into the culture medium was determined by ELISA (Rat Insulin ELISA Kit) per the manufacturer's instructions. For these studies, cells were grown to approximately 95% confluency in 6-well plates containing 3 mL complete medium/well. 16 hours before stimulation, the medium was replaced with 3 mL fresh complete medium. Immediately prior to stimulation, the medium was aspirated, the cells were washed twice with 2 mL phosphate buffered saline (PBS), and then 3 mL fresh complete medium was added to each well. Cells were subjected to ACBPS (10 Hz, (2.5 ms)/(2.5 ms) pulse duration (i.e. anodal duration/cathodal duration), 10-25 V magnitude) or mock stimulation for the indicated times. At the end of the stimulation periods, a 0.5 mL sample of medium was removed from each well and stored frozen at −70° C. for later analysis. In some studies, cells were grown for 16 hours in glucose-free medium prior to stimulation. To examine a role for electrolysis products in promoting insulin release, an additional series of experiments were conducted that involved the application of ACBPS (10 Hz, (2.5 ms)/(2.5 ms) pulse duration, 25 V magnitude) or no stimulation (mock) for 30 min to 6-well plates containing only complete medium (3 mL per well) (i.e., no cells). At the end of the stimulation period, the “pre-stimulated” medium was transferred to cells that had been washed twice with PBS (as above). The cells were allowed to incubate with the pre-stimulated medium for 30 min, after which a 0.5 mL sample of medium was removed from each well and stored frozen at −70° C. for latter analysis. The insulin concentration of the culture medium was measured by colorimetric ELISA using 2 μL of the culture medium as described by the manufacturer. Culture medium samples and insulin standards were allowed to bind for 16 hours at 4° C.

Molecule | DiBAC4(3) fluorescence (INS-1 cells [1]) | ACBPS-induced insulin release (INS-1 cells [2]) | basal insulin release (INS-1 cells [2])
CC(C)[C@@H]1NC(=O)[C@H](C)OC(=O)[C@@H](C(C)C)NC(=O)[C@@H](C(C)C)OC(=O)[C@H](C(C)C)NC(=O)[C@H](C)OC(=O)[C@@H](C(C)C)NC(=O)[C@@H](C(C)C)OC(=O)[C@H](C(C)C)NC(=O)[C@H](C)OC(=O)[C@@H](C(C)C)NC(=O)[C@@H](C(C)C)OC1=O [valinomycin] | decrease | – | –
Antimycin A | – | inhibited | inhibited
gramicidin A | increased | – | –
COc1ccc(CCN(C)CCCC(C#N)(c2ccc(OC)c(OC)c2)C(C)C)cc1OC (centres unmarked) [verapamil] | – | – | inhibited
[Cl-].[K+] [KCl] | increased | – | –
CC[C@@H]1/C=C/C=C/C[C@H](C)[C@H](O)[C@](C)(O)C(=O)[C@H](C)[C@@H](O)[C@H](C)C(=O)[C@H](C)[C@@H](O)[C@H](C)/C=C/C(=O)O[C@H]2[C@@H](C)[C@@H](CC1)O[C@@]1(CC[C@@H](C)[C@@H](C[C@H](C)O)O1)[C@@H]2C [oligomycin A] | – | inhibited | inhibited
